Experimental data: patent publication EP0853484B1, “NOVEL MU OPIOID RECEPTOR LIGANDS: AGONISTS AND ANTAGONISTS” (priority 1995, dated 1996)
Non-standard residues stand in square brackets, D forms with d. No end group written: not given here.

Legend:
κ receptors = target: T1, κ receptors (Cavia porcellus, UniProt P41144); experiment: Radioreceptor assay selective for κ receptors ([3H]-U69,593, guinea pig brain homogenates); assay type: binding; details: ratio of κ IC50 to µ IC50
T1 construct: tissue homogenates prepared from guinea pig brains (cortex and cerebellum); tissue Harlan Bioproducts for Science; host or cells: guinea pig brain (cortex and cerebellum) homogenate
Protocol: Assays selective for κ receptors were carried out using [^3H]-U69,593 (3 nM, specific activity 62 Ci/mmol) as the radioligand and tissue homogenates prepared from guinea pig brains (cortex and cerebellum) using Tris buffer containing 100 µM PMSF, 5 mM MgCl2 and 1 mg/ml BSA, pH 7.4. Sample tubes were incubated for 2.5 hr.

δ receptors = target: T2, δ receptors (Rattus norvegicus, UniProt P33533); experiment: Radioreceptor assay selective for δ receptors ([3H]-naltrindole, rat brain homogenates); assay type: binding; details: ratio of δ IC50 to µ IC50
T2 construct: performed using rat brain homogenates as above; tissue Harlan Bioproducts for Science; host or cells: rat brain crude membrane homogenate
Protocol: Radioreceptor assays selective for δ receptors were performed using rat brain homogenates as above and [^3H]-naltrindole (0.5 nM, specific activity 34.7 Ci/mmol) as radioligand in Tris buffer containing 100 µM phenylmethylsulfonyl fluoride (PMSF), 5 mM MgCl2 and 1 mg/ml bovine serum albumin (BSA), pH 7.4. Samples were incubated for 2.5 hr. Standard curves were prepared using 0.10-3200 nM [^3H]-D-Pen2, Pen5]-enkephalin ([^3H]-DPDPE).

MU RECEPTOR = experiment: Agonist or antagonist activity by either the adenylyl cyclase assay or the GPI assay (not stated which)

T1 sequence (P41144 whole entry): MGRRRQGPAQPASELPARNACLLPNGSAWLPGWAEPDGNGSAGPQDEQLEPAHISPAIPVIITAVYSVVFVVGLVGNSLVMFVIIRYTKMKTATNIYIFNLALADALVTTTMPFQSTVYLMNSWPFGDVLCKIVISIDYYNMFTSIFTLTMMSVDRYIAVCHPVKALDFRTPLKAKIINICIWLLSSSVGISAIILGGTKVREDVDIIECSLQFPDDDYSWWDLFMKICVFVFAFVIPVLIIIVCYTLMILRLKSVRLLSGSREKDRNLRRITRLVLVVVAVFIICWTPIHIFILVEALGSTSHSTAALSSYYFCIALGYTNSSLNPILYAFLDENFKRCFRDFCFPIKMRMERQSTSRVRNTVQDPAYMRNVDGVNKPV
T2 sequence (P33533 whole entry): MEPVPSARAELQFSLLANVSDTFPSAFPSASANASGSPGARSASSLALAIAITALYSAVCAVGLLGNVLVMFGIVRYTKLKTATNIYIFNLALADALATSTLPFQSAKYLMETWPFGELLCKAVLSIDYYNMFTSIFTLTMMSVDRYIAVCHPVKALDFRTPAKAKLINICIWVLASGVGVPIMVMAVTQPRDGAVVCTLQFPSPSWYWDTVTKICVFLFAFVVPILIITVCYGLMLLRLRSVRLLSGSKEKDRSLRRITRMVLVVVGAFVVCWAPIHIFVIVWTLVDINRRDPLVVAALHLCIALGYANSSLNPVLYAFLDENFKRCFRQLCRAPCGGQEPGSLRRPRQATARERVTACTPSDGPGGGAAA

Substance | κ/µ (κ receptors) | δ/µ (δ receptors) | AGONIST OR ANTAGONIST (MU RECEPTOR)
[D-Ala^2,MePhe^4,Gly-ol^5]enkephalin [DAMGO] | 844 | 253 | 
[dI][dM][dT][dW]G[dP]-NH2 [SEQ ID NO. 130] |  |  | Agonist
